Laboratory results published in PubChem BioAssay (NCI).
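Cells were grown in 96-well plates and exposed to each compound for 48 hours at five concentrations; endpoints were interpolated linearly between bracketing concentrations, or set to the highest concentration if not reached. TGI is the concentration that stops growth completely.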

test system: SK-OV-3 ovarian; assay: NCI-60 cell line screen, 48 h

First: CC(Cn1c2c(c3cc(O)ccc31)CCc1ccc(O)cc1-2)N(C)C (stereo not drawn)
Second: O=C(Cn1c2ccc(Br)cc2c2nc3ccccc3nc21)Nc1ccccc1
The TGI of the first is lower: 77 µM for the first, over 100 µM for the second.

`COC(=O)/C=C/[C@@H]1[C@H](C)N1S(=O)(=O)c1ccc(C)cc1` (stereo partly drawn) and `CCOc1ccc(NC(=O)C(=O)Nn2c(N)nnc2N)cc1` cannot be ordered by TGI: over 100 µM for the first, over 100 µM for the second.

`CCOC(=O)C(=CNc1ccc(F)c(F)c1)C(=O)OCC` and `NC(=O)[N+](=CC(=S)Nc1ccccc1Cl)C(N)=O` cannot be ordered by TGI: over 100 µM for the first, over 100 µM for the second.

`CN(N=O)c1nc2c(C(N)=O)ncn2s1` and `Cc1sc2nc3n(c(=O)c2c1C)N=CN(c1ccc(Cl)cc1)C3` cannot be ordered by TGI: over 100 µM for the first, over 100 µM for the second.

`Cc1[nH]c(-c2ccccc2)c2nc(N(C)C)oc(=O)c12` and `COc1cc(OC)c2c(=O)c3cccc(C)c3n(C)c2c1` cannot be ordered by TGI: over 100 µM for the first, over 100 µM for the second.

Compared with `CC(C)(C)O/N=C/c1cc(NC(=S)c2ccsc2)ccc1Cl`, `Cc1ccc2nc(NS(=O)(=O)c3cc(C)c(Cl)cc3S)[nH]c2c1` is higher in TGI: 46.8 µM for the first, over 100 µM for the second.

`O=[N+]([O-])c1cccc2nccc(NCCN3CCOCC3)c12` and `O=C1NC(N/N=C\c2ccccc2)=N/C1=C/c1ccccc1` cannot be ordered by TGI: over 100 µM for the first, over 100 µM for the second.

First: CCCCCCCCCCCCOCC1(COCCCCCCCCCCCC)COC(c2ccc(N)cc2)OC1
Second: C[C@@H]1CC[C@@H]2[C@@H](C1)O[C@@H]([C@@H](C)OCc1ccccc1)SC2(C)C
The TGI of the first is higher: over 100 µM for the first, 59.9 µM for the second.

test system: U251 CNS; assay: NCI-60 cell line screen, 48 h

`O=[N+]([O-])c1ccc(-c2nn3c(C45CC6CC(CC(C6)C4)C5)nnc3s2)c(Cl)c1` and `O=[N+]([O-])c1cccc2nccc(NCCN3CCOCC3)c12` cannot be ordered by TGI: over 100 µM for the first, over 53.9 µM for the second.

`CCCCCCCCCCCCCCCCNC(=O)/C(=C\c1ccc(Cl)c(Cl)c1)NC(=O)c1ccccc1` and `CCCCCCCCCCCCOCC1(COCCCCCCCCCCCC)COC(c2ccc(N)cc2)OC1` cannot be ordered by TGI: over 100 µM for the first, over 100 µM for the second.

Compared with `CC(Cn1c2c(c3cc(O)ccc31)CCc1ccc(O)cc1-2)N(C)C` (stereo not drawn), `O=C(Cn1c2ccc(Br)cc2c2nc3ccccc3nc21)Nc1ccccc1` is lower in TGI: over 100 µM for the first, 73.5 µM for the second.

`COC(=O)/C=C/[C@@H]1[C@H](C)N1S(=O)(=O)c1ccc(C)cc1` (stereo partly drawn) and `CCOc1ccc(NC(=O)C(=O)Nn2c(N)nnc2N)cc1` cannot be ordered by TGI: over 100 µM for the first, over 100 µM for the second.

`CCOC(=O)C(=CNc1ccc(F)c(F)c1)C(=O)OCC` and `NC(=O)[N+](=CC(=S)Nc1ccccc1Cl)C(N)=O` cannot be ordered by TGI: over 100 µM for the first, over 100 µM for the second.

`CN(N=O)c1nc2c(C(N)=O)ncn2s1` and `Cc1sc2nc3n(c(=O)c2c1C)N=CN(c1ccc(Cl)cc1)C3` cannot be ordered by TGI: over 100 µM for the first, over 100 µM for the second.

`C1CCCN(NC2=NCCO2)CC1` and `Cc1ccc2nc(NS(=O)(=O)c3cc(C)c(Cl)cc3S)[nH]c2c1` cannot be ordered by TGI: over 100 µM for the first, over 100 µM for the second.

`Cc1[nH]c(-c2ccccc2)c2nc(N(C)C)oc(=O)c12` and `COc1cc(OC)c2c(=O)c3cccc(C)c3n(C)c2c1` cannot be ordered by TGI: over 100 µM for the first, over 100 µM for the second.

Compared with `CC(C)(C)O/N=C/c1cc(NC(=S)c2ccsc2)ccc1Cl`, `O=C1NC(N/N=C\c2ccccc2)=N/C1=C/c1ccccc1` is higher in TGI: 43.8 µM for the first, over 100 µM for the second.

`C[C@@H]1CC[C@@H]2[C@@H](C1)O[C@@H]([C@@H](C)OCc1ccccc1)SC2(C)C` gave a TGI of 32.6 µM.

test system: RPMI-8226 leukemia; assay: NCI-60 cell line screen, 48 h

`O=[N+]([O-])c1ccc(-c2nn3c(C45CC6CC(CC(C6)C4)C5)nnc3s2)c(Cl)c1` and `Cc1nn(C(=O)c2ccncc2)c2c1C(c1ccccc1[N+](=O)[O-])SC(N)=N2` (stereo not drawn) cannot be ordered by TGI: over 100 µM for the first, over 10 µM for the second.

Compared with `CCCCCCCCCCCCCCCCNC(=O)/C(=C\c1ccc(Cl)c(Cl)c1)NC(=O)c1ccccc1`, `CCCCCCCCCCCCOCC1(COCCCCCCCCCCCC)COC(c2ccc(N)cc2)OC1` is higher in TGI: 58.5 µM for the first, over 100 µM for the second.

`CC(Cn1c2c(c3cc(O)ccc31)CCc1ccc(O)cc1-2)N(C)C` (stereo not drawn) and `O=C(Cn1c2ccc(Br)cc2c2nc3ccccc3nc21)Nc1ccccc1` cannot be ordered by TGI: over 100 µM for the first, over 100 µM for the second.

`COC(=O)/C=C/[C@@H]1[C@H](C)N1S(=O)(=O)c1ccc(C)cc1` (stereo partly drawn) and `CCOc1ccc(NC(=O)C(=O)Nn2c(N)nnc2N)cc1` cannot be ordered by TGI: over 100 µM for the first, over 100 µM for the second.

`CCOC(=O)C(=CNc1ccc(F)c(F)c1)C(=O)OCC` and `NC(=O)[N+](=CC(=S)Nc1ccccc1Cl)C(N)=O` cannot be ordered by TGI: over 100 µM for the first, over 100 µM for the second.

`CN(N=O)c1nc2c(C(N)=O)ncn2s1` and `CC(=O)N1C(Nc2nccs2)CCN1c1ccccc1` (stereo not drawn) cannot be ordered by TGI: over 100 µM for the first, over 10 µM for the second.

`C1CCCN(NC2=NCCO2)CC1` and `O=[N+]([O-])c1cccc2nccc(NCCN3CCOCC3)c12` cannot be ordered by TGI: over 100 µM for the first, over 63.5 µM for the second.

Compared with `Cc1[nH]c(-c2ccccc2)c2nc(N(C)C)oc(=O)c12`, `COc1cc(OC)c2c(=O)c3cccc(C)c3n(C)c2c1` is lower in TGI: over 100 µM for the first, 58.9 µM for the second.

Going from `CC(C)(C)O/N=C/c1cc(NC(=S)c2ccsc2)ccc1Cl` to `Cc1ccc2nc(NS(=O)(=O)c3cc(C)c(Cl)cc3S)[nH]c2c1`, the TGI rises from 12.2 µM to over 100 µM.

`O=C1NC(N/N=C\c2ccccc2)=N/C1=C/c1ccccc1` and `Cc1sc2nc3n(c(=O)c2c1C)N=CN(c1ccc(Cl)cc1)C3` cannot be ordered by TGI: over 100 µM for the first, over 100 µM for the second.

`C[C@@H]1CC[C@@H]2[C@@H](C1)O[C@@H]([C@@H](C)OCc1ccccc1)SC2(C)C` gave a TGI of 35.4 µM.

test system: SK-MEL-28 melanoma; assay: NCI-60 cell line screen, 48 h

`O=[N+]([O-])c1ccc(-c2nn3c(C45CC6CC(CC(C6)C4)C5)nnc3s2)c(Cl)c1` and `Cc1nn(C(=O)c2ccncc2)c2c1C(c1ccccc1[N+](=O)[O-])SC(N)=N2` (stereo not drawn) cannot be ordered by TGI: over 100 µM for the first, over 10 µM for the second.

`CCCCCCCCCCCCCCCCNC(=O)/C(=C\c1ccc(Cl)c(Cl)c1)NC(=O)c1ccccc1` and `CCCCCCCCCCCCOCC1(COCCCCCCCCCCCC)COC(c2ccc(N)cc2)OC1` cannot be ordered by TGI: over 100 µM for the first, over 100 µM for the second.

`O=C(Cn1c2ccc(Br)cc2c2nc3ccccc3nc21)Nc1ccccc1` and `O=C1NC(N/N=C\c2ccccc2)=N/C1=C/c1ccccc1` cannot be ordered by TGI: over 100 µM for the first, over 100 µM for the second.

`COC(=O)/C=C/[C@@H]1[C@H](C)N1S(=O)(=O)c1ccc(C)cc1` (stereo partly drawn) and `CCOc1ccc(NC(=O)C(=O)Nn2c(N)nnc2N)cc1` cannot be ordered by TGI: over 100 µM for the first, over 100 µM for the second.

First: CCOC(=O)C(=CNc1ccc(F)c(F)c1)C(=O)OCC
Second: CC(C)(C)O/N=C/c1cc(NC(=S)c2ccsc2)ccc1Cl
The TGI of the first is higher: over 100 µM for the first, 39.2 µM for the second.

`CN(N=O)c1nc2c(C(N)=O)ncn2s1` and `CC(=O)N1C(Nc2nccs2)CCN1c1ccccc1` (stereo not drawn) cannot be ordered by TGI: over 100 µM for the first, over 10 µM for the second.

`Cc1[nH]c(-c2ccccc2)c2nc(N(C)C)oc(=O)c12` and `COc1cc(OC)c2c(=O)c3cccc(C)c3n(C)c2c1` cannot be ordered by TGI: over 100 µM for the first, over 100 µM for the second.

`Cc1ccc2nc(NS(=O)(=O)c3cc(C)c(Cl)cc3S)[nH]c2c1` and `Cc1sc2nc3n(c(=O)c2c1C)N=CN(c1ccc(Cl)cc1)C3` cannot be ordered by TGI: over 100 µM for the first, over 100 µM for the second.

`O=[N+]([O-])c1cccc2nccc(NCCN3CCOCC3)c12` and `C[C@@H]1CC[C@@H]2[C@@H](C1)O[C@@H]([C@@H](C)OCc1ccccc1)SC2(C)C` are within 1.5-fold of each other in TGI: 46.1 µM for the first, 60.4 µM for the second.

test system: OVCAR-3 ovarian; assay: NCI-60 cell line screen, 48 h

`O=[N+]([O-])c1ccc(-c2nn3c(C45CC6CC(CC(C6)C4)C5)nnc3s2)c(Cl)c1` and `Cc1nn(C(=O)c2ccncc2)c2c1C(c1ccccc1[N+](=O)[O-])SC(N)=N2` (stereo not drawn) cannot be ordered by TGI: over 100 µM for the first, over 10 µM for the second.

`CCCCCCCCCCCCCCCCNC(=O)/C(=C\c1ccc(Cl)c(Cl)c1)NC(=O)c1ccccc1` and `CCCCCCCCCCCCOCC1(COCCCCCCCCCCCC)COC(c2ccc(N)cc2)OC1` cannot be ordered by TGI: over 100 µM for the first, over 100 µM for the second.

Compared with `CC(Cn1c2c(c3cc(O)ccc31)CCc1ccc(O)cc1-2)N(C)C` (stereo not drawn), `O=C(Cn1c2ccc(Br)cc2c2nc3ccccc3nc21)Nc1ccccc1` is higher in TGI: 30.1 µM for the first, over 100 µM for the second.

`COC(=O)/C=C/[C@@H]1[C@H](C)N1S(=O)(=O)c1ccc(C)cc1` (stereo partly drawn) and `CCOc1ccc(NC(=O)C(=O)Nn2c(N)nnc2N)cc1` cannot be ordered by TGI: over 100 µM for the first, over 100 µM for the second.

`CCOC(=O)C(=CNc1ccc(F)c(F)c1)C(=O)OCC` and `NC(=O)[N+](=CC(=S)Nc1ccccc1Cl)C(N)=O` cannot be ordered by TGI: over 100 µM for the first, over 100 µM for the second.

`CN(N=O)c1nc2c(C(N)=O)ncn2s1` and `CC(=O)N1C(Nc2nccs2)CCN1c1ccccc1` (stereo not drawn) cannot be ordered by TGI: over 100 µM for the first, over 10 µM for the second.

Compared with `C1CCCN(NC2=NCCO2)CC1`, `O=[N+]([O-])c1cccc2nccc(NCCN3CCOCC3)c12` is lower in TGI: over 100 µM for the first, 25.2 µM for the second.

Going from `CC(C)(C)O/N=C/c1cc(NC(=S)c2ccsc2)ccc1Cl` to `Cc1ccc2nc(NS(=O)(=O)c3cc(C)c(Cl)cc3S)[nH]c2c1`, the TGI rises from 28.1 µM to over 100 µM.

`COc1cc(OC)c2c(=O)c3cccc(C)c3n(C)c2c1` and `Cc1sc2nc3n(c(=O)c2c1C)N=CN(c1ccc(Cl)cc1)C3` cannot be ordered by TGI: over 100 µM for the first, over 100 µM for the second.

Work on `O=C1NC(N/N=C\c2ccccc2)=N/C1=C/c1ccccc1` yielded a TGI of 94.9 µM.
